The source made the active and inactive calls. The calls are words filed in the database; no cut-off is given here.
Assays:
Zika virus [1] = experiment: Antiviral activity against Zika virus infected in SF-268 cells assessed as inhibition of viral infection at post entry stage after 96 hrs measured after 1 hr post infection by DAPI staining based fluorescence microscopic analysis; type: functional, organism-based
Zika virus [2] = experiment: Antiviral activity against Zika virus infected in human SF-268 cells assessed as inhibition of virus-induced cytopathic effect at 10 uM measured at 96 hrs MTT assay; type: functional
Zika virus [3] = experiment: Antiviral activity against Zika virus infected in human SF-268 cells assessed as reduction in viral NS1 protein synthesis at 10 uM measured at 96 hrs by immunofluorescence assay relative to control; type: functional
[4] = Cytotoxicity against human SF-268 cells assessed as inhibition of cell viability measured after 96 hrs by MTT assay; type: cell-based
Zika virus [5] = experiment: Antiviral activity against Zika virus infected in human SF-268 cells assessed as reduction in viral infection by DAPI staining based immunofluorescence assay; type: functional, organism-based
[6] = Therapeutic index, ratio of CC50 for cytotoxicity against human SF-268 cells to IC50 for antiviral activity against Zika virus infected in human SF-268 cells; type: toxicity, cell-based; conditions: read-out: TI
Zika virus [7] = experiment: Antiviral activity against Zika virus infected in SF-268 cells assessed as inhibition of viral infection at entry stage measured after 96 hrs by DAPI staining based fluorescence microscopic analysis; type: functional, organism-based; conditions: SF-268, 96 h

| Structure (SMILES) | IC50 (Zika virus [1]) [nM] | inhibition at 10 µM (Zika virus [2]) [%] | INH (Zika virus [3]) [%] | CC50 at 96 h [4] [nM] | IC50 (Zika virus [5]) [nM] | selectivity ratio [6] | IC50 (Zika virus [7]) [nM] | inhibition (Zika virus [2]) |
| --- | --- | --- | --- | --- | --- | --- | --- | --- |
| CCCCOC(=O)[C@@]1(C)CC[C@]2(C)CC[C@]3(C)C(=CC(=O)C4[C@@]5(C)Cc6snnc6C(C)(C)C5CC[C@]43C)[C@@H]2C1 (some centres not stated) | 430 | > 70 | 82.1 | > 50000 | 560 | > 89.3 | 500 |  |
| COC(=O)[C@@]1(C)CC[C@]2(C)CC[C@]3(C)C(=CCC4[C@@]5(C)CC/C(=N\NC(N)=S)C(C)(C)C5CC[C@]43C)C2C1 (some centres not stated) |  |  | 49.5 |  |  |  |  | Active |
| CC(=O)O[C@H]1CC[C@@]2(C)C(CC[C@]3(C)C2C(=O)C=C2C4C[C@@](C)(C(=O)Nc5cnc6ccccc6c5)CC[C@]4(C)CC[C@]23C)C1(C)C (some centres not stated) |  |  | 26.5 |  |  |  |  | Active |
| COC(=O)[C@@]1(C)CC[C@]2(C)CC[C@]3(C)C(=CC(=O)C4[C@@]5(C)CC/C(=N\NC(N)=O)C(C)(C)C5CC[C@]43C)[C@@H]2C1 (some centres not stated) |  | 63 | 66.6 |  |  |  |  |  |
| CCCCOC(=O)[C@@]1(C)CC[C@]2(C)CC[C@]3(C)C(=CC(=O)C4[C@@]5(C)CC/C(=N\NC(N)=O)C(C)(C)C5CC[C@]43C)[C@@H]2C1 (some centres not stated) | 450 | > 70 | 82.8 | > 50000 | 550 | > 90.9 | 1090 |  |
| COC(=O)[C@@]1(C)CC[C@]2(C)CC[C@]3(C)C(=CC(=O)C4[C@@]5(C)Cc6snnc6C(C)(C)C5CC[C@]43C)[C@@H]2C1 (some centres not stated) | 1940 | > 70 | 74.9 | > 50000 | 290 | > 172 | 620 |  |
| COC(=O)[C@@]1(C)CC[C@]2(C)CC[C@]3(C)C(=CCC4[C@@]5(C)Cc6snnc6C(C)(C)C5CC[C@]43C)C2C1 (some centres not stated) |  |  | 55.4 |  |  |  |  | Active |
| COC(=O)[C@]1(C)C=C2C3=CC(=O)C4[C@@]5(C)CC/C(=N\NC(N)=O)C(C)(C)C5CC[C@@]4(C)[C@]3(C)CC[C@@]2(C)CC1 (some centres not stated) |  | 63 | 62.6 |  |  |  |  |  |
| CC(=O)O[C@H]1CC[C@@]2(C)C(CC[C@]3(C)C2C(=O)C=C2C4C[C@@](C)(C(=O)Nc5nc(-c6ccccc6)cs5)CC[C@]4(C)CC[C@]23C)C1(C)C (some centres not stated) |  |  | 52.3 |  |  |  |  | Active |
| CC(=O)O[C@H]1CC[C@@]2(C)C(CC[C@]3(C)C2C(=O)C=C2C4C[C@@](C)(C(=O)Nc5cccnc5)CC[C@]4(C)CC[C@]23C)C1(C)C (some centres not stated) | 1000 | > 70 | 76.3 | > 50000 | 130 | > 384 | 680 |  |
| COC(=O)[C@@]1(C)CC[C@]2(C)CC[C@]3(C)C(=CCC4[C@@]5(C)CC/C(=N\NC(N)=O)C(C)(C)C5CC[C@]43C)C2C1 (some centres not stated) |  |  | 49.9 |  |  |  |  | Active |
